# Biological target: T1, PLK1 (Homo sapiens, UniProt P53350)
# T1 construct: endogenous in cells; host or cells: HeLa
# Assay: PLK1 protein degradation in HeLa cells, Western blotting (PLK1/GAPDH ratio)
# Type: cell-based
# Details: 6 hours compound incubation; for DC50: measured only if the grade of Dmax is A or B; for Dmax: thymidine block and release, 10 points three-fold from 3 μM, PLK1 to GAPDH ratio, read-out: Dmax
# Excerpt: The HeLa cell line was purchased from Korea Cell Line Bank (KCLB), Seoul, Korea. The passage in cell culture was maintained at P115 to P125.
# For cell culture, DMEM (Gibco, Cat. No. 1195-65; Lot. No. 2085318), FBS (Gibco, Cat. No. 16000-044; Lot. No. 2097593), Penicillin/Streptomycin (PS) (Gibco, Cat. No. 15140-122; Lot. No. 2058855), 100 mm^2 cell culture dish (SPL, Cat. No. 20100), 150 mm^2 cell culture dish (SPL, Cat. No. 20150), 12-well culture plate (SPL, Cat. No. 30012), PBS pH 7.4 (Gibco, Cat. No. 10010-023; Lot. No. 2085080), TrypLE™ Express (Gibco, Cat. No. 12605-010; Lot No. 2070638), Counting Chamber (Hematocytometer) (Hirschmann, Cat. No. 8100204), and 0.4% Trypan Blue Solution (DYNEBIO, Cat. No. CBT3710; Lot. No. 20190723) were used.
# 2×10^5 cells were seeded for each well of a 12-well plate (SPL), and the cells were cultured in the culture medium in a total volume of 2 ml.
# The compounds of Examples were completely dissolved in DMSO and used in the experiment, and thymidine was completely dissolved in DW and used in the experiment. For thymidine block, the products were treated with 2 mM of thymidine (Sigma-Aldrich Cat. No. T9250-5G) and then incubated for 24 hours.
# For release and chemical treatment, the medium was suctioned and washed 3 times with 1×PBS. Complete media was added, followed by incubation for 4 hours in a CO2 incubator. Each compound was diluted three folds from the highest concentration of 3 μM to the lowest concentration in 10 points and then incubated for 6 hours again.
# For SDS-PAGE and Western blotting, 1×RIPA lysis buffer (Rockland, Cat. No. MB-030-0050; Lot no. 39751), 100× Protease Inhibitor Cocktail (Quartett, Cat. No. PPI1015; Lot no. PCO50038424), Pierce™ BCA protein assay kit (ThermoScientific, Cat. No. 23225; Lot no. UC276876), albumin standard (ThermoScientific, Cat. No. 23209; Lot no. UB269561), 4-15% Mini-PROTEAN TGX stain-free gel (Bio-rad, Cat. No. 4568085; Lot no. L007041B), 10× Tris/Glycine/SDS buffer (Bio-rad, Cat. No. 1610732; Lot no. 10000044375B); 10×TBS (Bio-rad, Cat. No. 1706435; Lot no. 1000045140B), 10% Tween 20 (Cat. No. 1610781; Lot no. L004152B), Color protein standard broad range (NEB, Cat. No. P7719S; Lot no. 10040349), 4× Laemmli sample buffer (Bio-rad, Cat. No. 1610747; Lot no. L004133B), β-mercaptoethanol (Sigma-Aldrich, Cat. No. M3148; Lot no. 60-24-2), SuperBlock™ T20 (TBS) blocking buffer (ThermoScientific, Cat. No. 37536; Lot no. UC282578), 1M sodium azide solution (Sigma-Aldrich, Cat. No. 08591-1 mL-F; Lot no. BCBV4989), α-Rabbit pAb to Ms IgG (abcam, Cat. No. ab97046; Lot no. GR3252115-1), α-Goat pAb to Rb IgG (CST, Cat. No. 7074S; Lot no. 28), α-GAPDH (abcam, Cat. No. ab8245; Lot no. GR3275542-2), α-Plk1 (CST, Cat. No. 208G4), α-BRD4 (CST, Cat. No. 13440S), ECL™ Prime western blotting reagents (GE Healthcare, Cat. No. RPN2232; Lot no. 17001655), Ponceau S solution (Sigma-Aldrich, Cat. No. P7170; Lot no. SLBV4112), Difco™ Skim milk (BD, Cat. No. 232100; Lot no. 8346795), and iBlot® 2 NC Regular stacks (Invitrogen, Cat. No. IB323001; Lot no. 2NR110619-02) were used.
# For cell harvesting, the cells were first separated from the plate using trypsin and then washed with the medium and PBS. Specifically, the medium was suctioned off and washed with 1 mL of PBS, and PBS was suctioned off. The cells were treated with 0.5 mL TrypLE™ Express at 37° C. for 7 minutes to separate the cells, and then 0.5 mL of complete medium was added to collect 1 mL of cell culture solution. Then, 1 mL of the cell collection solution was centrifuged at 8,000 rpm for 120 seconds, and the supernatant was removed. After washing with 0.2 mL of PBS, the PBS was removed.
# For cell lysis, a lysis buffer was added and cell debris was removed to obtain a cell lysate. Specifically, the cells were treated with 70 μL of 1×RIPA buffer containing a protease inhibitor and incubated for 30 minutes on ice. Then, the cells were centrifuged at 4° C. and 15,000 rpm for 10 minutes to obtain a cell lysate. […]
# T1 sequence (P53350 whole entry): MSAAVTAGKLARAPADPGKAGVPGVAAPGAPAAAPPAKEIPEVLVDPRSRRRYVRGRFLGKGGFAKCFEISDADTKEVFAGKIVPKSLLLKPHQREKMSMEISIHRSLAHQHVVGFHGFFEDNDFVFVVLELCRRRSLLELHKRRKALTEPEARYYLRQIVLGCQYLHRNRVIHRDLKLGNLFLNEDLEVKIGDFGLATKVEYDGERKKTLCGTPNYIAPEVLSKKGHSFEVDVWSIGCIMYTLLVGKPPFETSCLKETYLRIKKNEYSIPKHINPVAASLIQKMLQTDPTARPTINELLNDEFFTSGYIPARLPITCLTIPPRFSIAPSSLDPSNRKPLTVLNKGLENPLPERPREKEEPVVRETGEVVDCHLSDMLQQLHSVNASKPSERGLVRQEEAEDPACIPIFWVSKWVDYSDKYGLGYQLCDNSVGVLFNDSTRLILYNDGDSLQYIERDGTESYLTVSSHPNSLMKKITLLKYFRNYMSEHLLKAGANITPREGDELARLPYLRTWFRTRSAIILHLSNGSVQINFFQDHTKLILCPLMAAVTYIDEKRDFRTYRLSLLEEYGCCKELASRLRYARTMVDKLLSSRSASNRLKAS
DC50 [nM],Dmax [%],SMILES
≤ 500,60 to 80,"COc1cc(C(=O)NC2CCN(CCOCCCCCCCCOCCNc3cccc4c3C(=O)N(C3CCC(=O)NC3=O)C4=O)CC2)c(F)cc1Nc1ncc2c(n1)N(C1CCCC1)CC(F)(F)C(=O)N2C (stereo not drawn) [Compound 22, 4-((9-cyclopentyl-7,7-difluoro-5-methyl-6-oxo-6,7,8,9-tetrahydro-5H-pyrimido[4,5-b][1,4]diazepin-2-yl)amino)-N-(1-(2-((8-(2-((2-(2,6-dioxopiperidin-3-yl)-1,3-dioxoisoindolin-4-yl)amino)ethoxy)octyl)oxy)ethyl)piperidin-4-yl)-2-fluoro-5-methoxybenzamide]"
≤ 50,≥ 80,"COc1cc(C(=O)NC2CCN(CCCCOCCCOCCOCCNc3cccc4c3C(=O)N(C3CCC(=O)NC3=O)C4=O)CC2)c(F)cc1Nc1ncc2c(n1)N(C1CCCC1)CC(F)(F)C(=O)N2C (stereo not drawn) [Compound 23, 4-((9-cyclopentyl-7,7-difluoro-5-methyl-6-oxo-6,7,8,9-tetrahydro-5H-pyrimido[4,5-b][1,4]diazepin-2-yl)amino)-N-(1-(4-(3-(2-(2-((2-(2,6-dioxopiperidin-3-yl)-1,3-dioxoisoindolin-4-yl)amino)ethoxy)ethoxy)propoxy)butyl)piperidin-4-yl)-2-fluoro-5-methoxybenzamide]"
≤ 50,≥ 80,"COc1cc(C(=O)NC2CCN(CCCOCCCOCCCOCCNc3cccc4c3C(=O)N(C3CCC(=O)NC3=O)C4=O)CC2)c(F)cc1Nc1ncc2c(n1)N(C1CCCC1)CC(F)(F)C(=O)N2C (stereo not drawn) [Compound 24, 4-((9-cyclopentyl-7,7-difluoro-5-methyl-6-oxo-6,7,8,9-tetrahydro-5H-pyrimido[4,5-b][1,4]diazepin-2-yl)amino)-N-(1-(3-(3-(3-(2-((2-(2,6-dioxopiperidin-3-yl)-1,3-dioxoisoindolin-4-yl)amino)ethoxy)propoxy)propoxy)propyl)piperidin-4-yl)-2-fluoro-5-methoxybenzamide]"
≤ 50,≥ 80,"COc1cc(C(=O)NC2CCN(CCOCCCOCCOCCOCCNc3cccc4c3C(=O)N(C3CCC(=O)NC3=O)C4=O)CC2)c(F)cc1Nc1ncc2c(n1)N(C1CCCC1)CC(F)(F)C(=O)N2C (stereo not drawn) [Compound 25, 4-((9-cyclopentyl-7,7-difluoro-5-methyl-6-oxo-6,7,8,9-tetrahydro-5H-pyrimido[4,5-b][1,4]diazepin-2-yl)amino)-N-(1-(1-((2-(2,6-dioxopiperidin-3-yl)-1,3-dioxoisoindolin-4-yl)amino)-3,6,9,13-tetraoxapentadecan-15-yl)piperidin-4-yl)-2-fluoro-5-methoxybenzamide]"
–,< 60,"COc1cc(C(=O)NC2CCN(CCOCCOCC(=O)Nc3cccc4c3C(=O)N(C3CCC(=O)NC3=O)C4=O)CC2)c(F)cc1Nc1ncc2c(n1)N(C1CCCC1)CC(F)(F)C(=O)N2C (stereo not drawn) [Compound 26, 4-((9-cyclopentyl-7,7-difluoro-5-methyl-6-oxo-6,7,8,9-tetrahydro-5H-pyrimido[4,5-b][1,4]diazepin-2-yl)amino)-N-(1-(2-(2-(2-((2-(2,6-dioxopiperidin-3-yl)-1,3-dioxoisoindolin-4-yl)amino)-2-oxoethoxy)ethoxy)ethyl)piperidin-4-yl)-2-fluoro-5-methoxybenzamide]"
≤ 500,60 to 80,"COc1cc(C(=O)NC2CCN(CCOCCOCCOCCOCC(=O)Nc3cccc4c3C(=O)N(C3CCC(=O)NC3=O)C4=O)CC2)c(F)cc1Nc1ncc2c(n1)N(C1CCCC1)CC(F)(F)C(=O)N2C (stereo not drawn) [Compound 27, 14-(4-(4-((9-cyclopentyl-7,7-difluoro-5-methyl-6-oxo-6,7,8,9-tetrahydro-5H-pyrimido[4,5-b][1,4]diazepin-2-yl)amino)-2-fluoro-5-methoxybenzamido)piperidin-1-yl)-N-(2-(2,6-dioxopiperidin-3-yl)-1,3-dioxoisoindolin-4-yl)-3,6,9,12-tetraoxatetradecanamide]"
≤ 500,60 to 80,"COc1cc(C(=O)NC2CCN(CCOCCCCCCCCOCC(=O)Nc3cccc4c3C(=O)N(C3CCC(=O)NC3=O)C4=O)CC2)c(F)cc1Nc1ncc2c(n1)N(C1CCCC1)CC(F)(F)C(=O)N2C (stereo not drawn) [Compound 28, 4-((9-cyclopentyl-7,7-difluoro-5-methyl-6-oxo-6,7,8,9-tetrahydro-5H-pyrimido[4,5-b][1,4]diazepin-2-yl)amino)-N-(1-(2-((8-(2-((2-(2,6-dioxopiperidin-3-yl)-1,3-dioxoisoindolin-4-yl)amino)-2-oxoethoxy)octyl)oxy)ethyl)piperidin-4-yl)-2-fluoro-5-methoxybenzamide]"
≤ 50,≥ 80,"COc1cc(C(=O)NC2CCN(CCOCCNC(=O)CNc3cccc4c3C(=O)N(C3CCC(=O)NC3=O)C4=O)CC2)c(F)cc1Nc1ncc2c(n1)N(C1CCCC1)CC(F)(F)C(=O)N2C (stereo not drawn) [Compound 29, 4-((9-cyclopentyl-7,7-difluoro-5-methyl-6-oxo-6,7,8,9-tetrahydro-5H-pyrimido[4,5-b][1,4]diazepin-2-yl)amino)-N-(1-(2-(2-(2-((2-(2,6-dioxopiperidin-3-yl)-1,3-dioxoisoindolin-4-yl)amino)acetamido)ethoxy)ethyl)piperidin-4-yl)-2-fluoro-5-methoxybenzamide]"
≤ 50,≥ 80,"COc1cc(C(=O)NC2CCN(CCOCCOCCOCCNC(=O)CNc3cccc4c3C(=O)N(C3CCC(=O)NC3=O)C4=O)CC2)c(F)cc1Nc1ncc2c(n1)N(C1CCCC1)CC(F)(F)C(=O)N2C (stereo not drawn) [Compound 30, 4-((9-cyclopentyl-7,7-difluoro-5-methyl-6-oxo-6,7,8,9-tetrahydro-5H-pyrimido[4,5-b][1,4]diazepin-2-yl)amino)-N-(1-(1-((2-(2,6-dioxopiperidin-3-yl)-1,3-dioxoisoindolin-4-yl)amino)-2-oxo-6,9,12-trioxa-3-azatetradecan-14-yl)piperidin-4-yl)-2-fluoro-5-methoxybenzamide]"
–,< 60,"COc1cc(C(=O)NC2CCN(C(=O)COCCNc3cccc4c3C(=O)N(C3CCC(=O)NC3=O)C4=O)CC2)c(F)cc1Nc1ncc2c(n1)N(C1CCCC1)CC(F)(F)C(=O)N2C (stereo not drawn) [Compound 31, 4-((9-cyclopentyl-7,7-difluoro-5-methyl-6-oxo-6,7,8,9-tetrahydro-5H-pyrimido[4,5-b][1,4]diazepin-2-yl)amino)-N-(1-(2-(2-((2-(2,6-dioxopiperidin-3-yl)-1,3-dioxoisoindolin-4-yl)amino)ethoxy)acetyl)piperidin-4-yl)-2-fluoro-5-methoxybenzamide]"

# — patent US20230372498A1, “PLK1 SELECTIVE DEGRADATION INDUCING COMPOUND” (UPPTHERA, priority 2020, published 2023)
